One test deals with T1, human FPRL2 (Homo sapiens, UniProt P25089).
T1 construct: expressed in transfected cells; host or cells: HEK293 (HEK293-hFPRL2-Gα16)
T1 sequence (P25089 1-353): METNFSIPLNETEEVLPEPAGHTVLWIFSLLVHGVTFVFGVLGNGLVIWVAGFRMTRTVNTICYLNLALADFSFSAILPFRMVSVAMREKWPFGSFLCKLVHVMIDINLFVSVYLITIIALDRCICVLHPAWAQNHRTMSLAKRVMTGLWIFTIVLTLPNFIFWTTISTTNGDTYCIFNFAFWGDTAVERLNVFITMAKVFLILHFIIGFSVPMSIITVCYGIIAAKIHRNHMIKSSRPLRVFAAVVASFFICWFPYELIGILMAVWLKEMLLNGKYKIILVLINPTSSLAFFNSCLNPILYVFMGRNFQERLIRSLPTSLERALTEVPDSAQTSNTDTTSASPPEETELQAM
In words: Intracellular calcium measurements (FLIPR), agonistic activity in HEK293-hFPRL2-Gα16 cells. It counts as cell-based. Particulars: Fluo-4 calcium FLIPR, normalized to GLY14-Humanin 100 nM. An outline of the steps: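 Peak values after baseline subtraction are expressed relative to 100 nM Gly14-Humanin; compounds diluted in assay buffer from 10 mM DMSO stocks.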
(Calcium flux is commonly read through the fluorescence of an indicator in the cells.)

Another test has as its target T2, human ALX receptor (Homo sapiens, UniProt P25090).
T2 construct: expressed in transfected cells; host or cells: HEK293 (HEK293-hALXR-Gα16)
T2 sequence (P25090 1-351): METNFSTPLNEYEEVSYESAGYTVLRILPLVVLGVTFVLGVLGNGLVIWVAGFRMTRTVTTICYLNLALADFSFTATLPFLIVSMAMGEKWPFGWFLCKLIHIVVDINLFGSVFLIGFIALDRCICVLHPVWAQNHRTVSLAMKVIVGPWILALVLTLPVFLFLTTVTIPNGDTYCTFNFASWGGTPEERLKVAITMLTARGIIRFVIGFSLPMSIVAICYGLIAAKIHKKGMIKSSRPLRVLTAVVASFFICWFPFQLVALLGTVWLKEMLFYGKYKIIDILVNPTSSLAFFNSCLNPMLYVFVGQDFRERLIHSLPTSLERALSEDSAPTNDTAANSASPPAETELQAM
In words: Intracellular calcium measurements (FLIPR), agonistic activity in HEK293-hALXR-Gα16 cells. The following applies: Fluo-4 calcium FLIPR, normalized to WKYMVm 10 nM. The class given is cell-based. The procedure, abridged: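 HEK293 cells expressing hALXR and Gα16 were loaded with 1 μM Fluo-4 AM and 20 mM HEPES for 60 min at 37°C, then exposed to serially diluted compound. FLIPR fluorescence was read at ex 488/em 540 nm. Baseline-subtracted peak responses were normalized to 10 nM WKYMVm.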

What is called EC50 is the concentration giving half of the maximal effect. As to `CCCCNC(=O)[C@H]1[C@H](C(=O)Nc2ccc(Br)cc2)[C@@H]2C=C[C@H]1C21CC1` (relative stereo) [Example 74, (5R*)—N^5-(4-Bromophenyl)-(6R*)—N^6-(butyl)-(4S*,7R*)-[4,7-ethenylene-spiro[2.4]heptane]-5,6-dicarboxamide], the concentration giving a half-maximal response (EC50) at human FPRL2 stood at 18200 nM; at human ALX receptor, 72 nM.

Turning to `CC1CCC(C)N1CCCCNC(=O)[C@H]1[C@H](C(=O)Nc2ccc(Br)cc2)[C@@H]2C=C[C@H]1C21CC1` (stereo partly drawn) [Example 397, (5R)—N^5-(4-Bromophenyl)-(6R)—N^6-(4-(2,5-dimethylpyrrolidin-1-yl)butyl)-(4S,7R)-[4,7-ethenylene-spiro[2.4]heptane]-5,6-dicarboxamide], the half-maximal effective concentration (EC50) at human FPRL2 came out at 149 nM; on human ALX receptor it was 2.1 nM.

With `COCC1CCCN1CCCCNC(=O)[C@H]1[C@H](C(=O)Nc2ccc(Br)cc2)[C@@H]2C=C[C@H]1C21CC1` (stereo partly drawn) [Example 400, (5R)—N^5-(4-Bromophenyl)-(6R)—N^6-(4-(2-(methoxymethyl)pyrrolidin-1-yl)butyl)-(4S,7R)-[4,7-ethenylene-spiro[2.4]heptane]-5,6-dicarboxamide], the EC50 at human FPRL2 stood at 7650 nM; on human ALX receptor, 1.4 nM.

Consider `COc1ccc(CNC(=O)[C@H]2[C@H](C(=O)NCCCCN3CCCC3)[C@H]3C=C[C@@H]2C32CC2)cc1OC` (racemic) [Example 375, (5R*)—N^5-(3,4-Dimethoxyphenyl-methyl)-(6R*)—N^6-(4-pyrrolidino-butyl)-(4S*,7R*)-[4,7-ethenylene-spiro[2.4]heptane]-5,6-dicarboxamide], for which the EC50 on human FPRL2 is 443 nM; on human ALX receptor, 9050 nM.

Consider `Cc1[nH]ncc1CCCNC(=O)[C@H]1[C@H](C(=O)Nc2ccc(Br)cc2)[C@@H]2C=C[C@H]1C21CC1` (racemic) [Example 88, (5R*)—N^5-(4-Bromophenyl)-(6R*)—N^6-(3-(5-methyl-1H-pyrazol-4-yl)-propyl)-(4S*,7R*)-[4,7-ethenylene-spiro[2.4]heptane]-5,6-dicarboxamide], for which the EC50 on human FPRL2 is 9420 nM; on human ALX receptor, 168 nM.

For the compound `O=C(NCCCCN1CCCC1)[C@H]1[C@H](C(=O)NCc2ccc(Br)cc2F)[C@@H]2C=C[C@H]1C21CC1` [Example 284, (5R)—N^5-(4-Bromo-2-fluorophenyl-methyl)-(6R)—N^6-(4-pyrrolidino-butyl)-(4S,7R)-[4,7-ethenylene-spiro[2.4]heptane]-5,6-dicarboxamide], the EC50 amounted to 264 nM on human FPRL2 and 13 nM on human ALX receptor.

For the compound `CC(C)(C)OC(=O)N1CCC(CNC(=O)[C@H]2[C@H](C(=O)Nc3ccc(Br)cc3)[C@@H]3C=C[C@H]2C32CC2)CC1` (racemic) [Example 92, (5R*)—N^5-(4-Bromophenyl)-(6R*)—N^6—(N-tert-butoxycarbonyl-piperidin-4-yl-methyl)-(4S*,7R*)-[4,7-ethenylene-spiro[2.4]heptane]-5,6-dicarboxamide], the EC50 on human FPRL2 was 2670 nM; at human ALX receptor, 204 nM.

Consider `Cc1ccc(NC(=O)[C@H]2[C@H](C(=O)NCCC(N)=O)[C@H]3C=C[C@@H]2C32CC2)nc1` [Example 313, (5R)—N^5-(5-Methyl-pyridin-2-yl)-(6R)—N^6-(3-amino-3-oxopropyl)-(4S,7R)-[4,7-ethenylene-spiro[2.4]heptane]-5,6-dicarboxamide], for which the figures for the 50% effective concentration (EC50) on human FPRL2 and on human ALX receptor were more than 25000 nM and 330 nM, respectively.

As for `O=C(NCCCCN1CCCC1)[C@H]1[C@H](C(=O)NCc2c(F)cc(F)cc2F)[C@@H]2C=C[C@H]1C21CC1` (racemic) [Example 346, (5R*)—N^5-(2,4,6-Trifluorophenyl-methyl)-(6R*)—N^6-(4-pyrrolidino-butyl)-(4S*,7R*)-[4,7-ethenylene-spiro[2.4]heptane]-5,6-dicarboxamide], the values for the EC50 at human FPRL2 and at human ALX receptor were 508 nM and 1540 nM, respectively.

In the case of `Cc1nc(CCNC(=O)[C@H]2[C@H](C(=O)Nc3ccc(Br)cc3)[C@H]3C=C[C@@H]2C32CC2)[nH]c1C` (relative stereo) [Example 199, (5R*)—N^5-(2-(4,5-Dimethyl-1H-imidazol-2-yl)-ethyl)-(6R*)—N^6-(4-bromophenyl)-(4S*,7R*)-[4,7-ethenylene-spiro[2.4]heptane]-5,6-dicarboxamide], the figures for the EC50 on human FPRL2 and on human ALX receptor were 7.4 nM and 77 nM, respectively.

For the compound `CC(=O)c1ccc(CNC(=O)[C@H]2[C@H](C(=O)NCCCCN3CCCC3)[C@H]3C=C[C@@H]2C32CC2)s1` (racemic) [Example 194, (5R*)—N^5-(5-Acetyl-thiophen-2-yl-methyl)-(6R*)—N^6-(4-pyrrolidin-1-yl-butyl)-(4S*,7R*)-[4,7-ethenylene-spiro[2.4]heptane]-5,6-dicarboxamide], the figures for the concentration giving a half-maximal response (EC50) at human FPRL2 and at human ALX receptor were 436 nM and 223 nM, respectively.

Turning to `CC(C)(C)OC(=O)N1CCCC(NC(=O)C2C(C(=O)Nc3ccc(Br)cc3)C3C=CC2C32CC2)C1` (mixture of isomers) [Example 56, (5R*)—N^5-(4-Bromophenyl)-(6R*)—N^6-(N-tert-butoxycarbonyl-piperidin-3-yl)-(4S*,7R*)-[4,7-ethenylene-spiro[2.4]heptane]-5,6-dicarboxamide], the EC50 at human FPRL2 stood at 1750 nM; on human ALX receptor, 18 nM.

As to `O=C(NCCCCN1CCCC1)[C@H]1[C@H](C(=O)Nc2cnc(Br)cn2)[C@@H]2C=C[C@H]1C21CC1` (racemic) [Example 251, (5R*)—N^5-(2-Bromo-pyrazin-5-yl)-(6R*)—N^6-(4-pyrrolidin-1-yl-butyl)-(4S*,7R*)-[4,7-ethenylene-spiro[2.4]heptane]-5,6-dicarboxamide], the results for the EC50 at human FPRL2 and at human ALX receptor were 558 nM and 7.9 nM, respectively.

Consider `O=C(NC1CCCCC1)[C@H]1[C@H](C(=O)Nc2ccc(Br)cc2)[C@@H]2C=C[C@H]1C21CC1` (racemic) [Example 93, (5R*)—N^5-(4-Bromophenyl)-(6R*)—N^6-(cyclohexyl)-(4S*,7R*)-[4,7-ethenylene-spiro[2.4]heptane]-5,6-dicarboxamide], for which the EC50 at human FPRL2 is more than 25000 nM; on human ALX receptor, 216 nM.

For the compound `NC(=O)CNC(=O)[C@H]1[C@H](C(=O)Nc2ccc(Br)cc2)[C@@H]2C=C[C@H]1C21CC1` (racemic) [Example 207, (5R*)—N^5-(4-Bromophenyl)-(6R*)—N^6-(2-amino-2-oxoethyl)-(4S*,7R*)-[4,7-ethenylene-spiro[2.4]heptane]-5,6-dicarboxamide], the EC50 on human FPRL2 worked out at 7430 nM; on human ALX receptor, 6.5 nM.

On to `O=C(NCCCN1CCCC1)[C@H]1[C@H](C(=O)NCc2ccc(Br)cc2)[C@@H]2C=C[C@H]1C21CC1` (racemic) [Example 236, (5R*)—N^5-(4-Bromo-phenyl-methyl)-(6R*)—N^6-(3-pyrrolidin-1-yl-propyl)-(4S*,7R*)-[4,7-ethenylene-spiro[2.4]heptane]-5,6-dicarboxamide], for which the EC50 at human FPRL2 is 292 nM; on human ALX receptor it was 49 nM.

Turning to `O=C(CCc1cccnc1)NC[C@H]1[C@H](C(=O)Nc2ccc(Br)cc2)[C@@H]2C=C[C@H]1C21CC1` (racemic) [Example 174, (5R*)—N^5-(4-Bromo-phenyl)-(6R*)-6-[(3-pyridin-3-yl-propionylamino)-methyl]-(4S*,7R*)-[4,7-ethenylene-spiro[2.4]heptane]-5-carboxamide], the EC50 at human FPRL2 was determined as 4810 nM; on human ALX receptor, 136 nM.

For the compound `CNC(=O)CCNC(=O)[C@H]1[C@H](C(=O)Nc2ccc(Br)cc2)[C@@H]2C=C[C@H]1C21CC1` (racemic) [Example 223, (5R*)—N^5-(4-Bromophenyl)-(6R*)—N^6-(3-methylamino-3-oxopropyl)-(4S*,7R*)-[4,7-ethenylene-spiro[2.4]heptane]-5,6-dicarboxamide], the EC50 on human FPRL2 was found to be 1210 nM; on human ALX receptor, 3.2 nM.

On to `CCN(CC)CCN(CC)C(=O)[C@H]1[C@H](C(=O)Nc2ccc(Br)cc2)[C@@H]2C=C[C@H]1C21CC1` (racemic) [Example 39, (5R*)—N^5-(4-Bromophenyl)-(6R*)—N^6-ethyl-N^6-(2-diethylamino-ethyl)-(4S*,7R*)-[4,7-ethenylene-spiro[2.4]heptane]-5,6-dicarboxamide], for which the EC50 is 1540 nM on human FPRL2 and 7.6 nM on human ALX receptor.

Take `NCCCCCNC(=O)[C@H]1[C@H](C(=O)Nc2ncc(Br)s2)[C@@H]2C=C[C@H]1C21CC1` (racemic) [Example 302, (5R*)—N^5-(5-Bromo-thiazol-2-yl)-(6R*)—N^6-(5-amino-pentyl)-(4S*,7R*)-[4,7-ethenylene-spiro[2.4]heptane]-5,6-dicarboxamide]: the values for the EC50 at human FPRL2 and at human ALX receptor were 543 nM and 1.3 nM, respectively.
